Series [1] deals with T1, KRAS (G12D)/SOS1 (Homo sapiens, UniProt P01116, G12D).
T1 construct: purchased Cisbio 63ADK000CB17PEH
Put plainly: KRAS (G12D)/SOS1 homogeneous time-resolved fluorescence (HTRF) assay. Format: binding. The settings on record: absence of GTP, 4° C. for 3 hr. As to the method:
3-fold serial dilutions of each test compound were prepared ranging from 20 μM to 1.02 nM. The test compound was mixed and incubated with reaction components, incubated in a sealed plate at 4° C. for 3 hr and fluorescence was measured using a PerkinElmer Envision plate reader. […]
A general note: TR-FRET usually uses a lanthanide donor and a delayed reading to cut background.

Series [2] concerns AGS gastric carcinoma cells [heterozygous G12D]. Put plainly: Cancer cell line proliferation (CellTiter-Glo), AGS. The class given is cell-based. The settings on record: Homo sapiens, 72 hr, read-out: CTG(IC50), ABS-72 H(nM) AGS. As to the method:
(§1) The following cancer cell lines were employed: AGS gastric carcinoma [heterozygous G12D] (ATCC, CRL-1739); A-427 lung carcinoma [heterozygous G12D] (ATCC, HTB-53); ASPC1 pancreatic adenocarcinoma [homozygous G12D] (ATCC, CRL-1682) and SW1990 pancreatic adenocarcinoma [homozygous G12D] (ATCC CRL-2172). Cell lines were cultured essentially according to ATCC recommendations.
(§2) AGS, A-427, ASPC1, SW1990, and GP2D cells were plated in 96-well tissue culture plates at 4,000 cells/well and incubated at 37° C./5% CO2 for 72 hr in 100 μl of media. 3-fold serial dilutions of each test compound were prepared ranging from 20 μM to 1.02 nM. Each cell line was then treated with test compounds at various concentrations with a final concentration of 0.5% DMSO/well, and then incubated at 37° C./5% CO2 for 72 hr. 100 μl of CellTiter-Glo® Reagent (Promega Corporation, Madison, WI) was added to each well and processed according manufacturer's protocol. Results were analyzed and IC50 5 values were calculated in GraphPad 7 software.

For series [3], the system named is ASPC1 pancreatic adenocarcinoma cells [homozygous G12D]. Kind of series: Cancer cell line proliferation (CellTiter-Glo), ASPC1. The note with it: Homo sapiens, ASPC-1 cells, 72 hr, read-out: CTG(IC50), ABS-72 H(nM) ASPC-1. The class given is cell-based. The method, then: as §1, §2
Series [4] deals with SW1990 pancreatic adenocarcinoma cells [homozygous G12D]. Kind of series: Cancer cell line proliferation (CellTiter-Glo), SW1990. The settings on record: Homo sapiens, 72 hr, read-out: CTG(IC50), ABS-72 H(nM) SW1990. Format: cell-based. The method, then:
as §1, §2

The nature of series [5]: Oral bioavailability in CD-1 mice. The note with it: male, CD-1, mouse, blood.
Protocol: CD-1 mice were randomly assigned to 6 groups with 3 male mice in each compound group. […] Compounds were orally administered (PO) in a single dose to each mouse in its group. Blood samples were taken within 72 hours. Bioavailability (F %) was determined and by liquid chromatography-mass spectrometry (LC-MS/MS).
In series [6] the test system is A-427 lung carcinoma cells [heterozygous G12D]. Kind of series: Cancer cell line proliferation (CellTiter-Glo), A-427. The class given is cell-based. The settings on record: Homo sapiens, A427 cells, 72 hr, read-out: CTG(IC50), ABS-72 H(nM) A427. The method, then: as §1, §2

T1 sequence (P01116 1-188 isoform P01116-2 G12D): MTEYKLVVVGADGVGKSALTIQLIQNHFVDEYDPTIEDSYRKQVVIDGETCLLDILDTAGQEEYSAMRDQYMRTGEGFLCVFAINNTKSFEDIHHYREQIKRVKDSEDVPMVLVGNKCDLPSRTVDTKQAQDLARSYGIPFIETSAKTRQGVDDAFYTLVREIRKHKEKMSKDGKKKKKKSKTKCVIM

Usually IC50 stands for the concentration that inhibits the measured activity by half. Broadly, the bioavailability is dose-corrected exposure relative to a reference, in per cent. `C#Cc1c(F)ccc2cc(O)cc(-c3nc(OC)c4c(N5CC6CCC(C5)N6)nc(OCC5(CN6CCC(C#N)C6)CC5)nc4c3F)c12` (centres unmarked) [Example 38]: the IC50 was less than 0.1 µM in series [1], less than 100 nM in series [2], less than 100 nM in series [3] and less than 100 nM in series [4]. Further, the bioavailability in series [5] amounted to 1.8%.

For `C#Cc1c(F)ccc2cc(O)cc(-c3ncc4c(N5CC6CCC(C5)N6)nc(OCC5(CN6CC7CC7C6)CC5)nc4c3F)c12` (centres unmarked) [Example 13], the IC50 was less than 0.1 µM in series [1]; less than 100 nM in series [2]; less than 100 nM in series [6]; less than 100 nM in series [3]; less than 100 nM in series [4]. In series [5], this compound displayed a bioavailability of 1.98%.

For `C#Cc1c(F)ccc2cc(O)cc(-c3ncc4c(N5CC6CCC(C5)N6)nc(OCC5(CN6CC7C(C6)C7C(F)(F)F)CC5)nc4c3F)c12` (centres unmarked) [Example 37], the IC50 is less than 0.1 µM in series [1]; less than 100 nM in series [2]; 100 to 1000 nM in series [6]; less than 100 nM in series [3]; less than 100 nM in series [4]. Besides, in series [5], the bioavailability stood at 10.6%.

As to `C#Cc1c(F)ccc2cc(O)cc(-c3nc(OC)c4c(N5CC6CCC(C5)N6)nc(OCC5(CN6CC7C(C#N)C7C6)CC5)nc4c3F)c12` (centres unmarked) [Example 51], the IC50 in series [1] is less than 0.1 µM; in series [2] it was less than 100 nM; in series [3], less than 100 nM; in series [4] it was less than 100 nM. Further, the bioavailability in series [5] was determined as 2.3%.

For the compound `C#Cc1c(F)ccc2cc(O)cc(-c3nc(OC)c4c(N5CC6CCC(C5)N6)nc(OCC5(CN6CCC7CC76)CC5)nc4c3F)c12` (centres unmarked) [Example 43], the IC50 in series [1] is less than 0.1 µM; in series [2], less than 100 nM; in series [6], 100 to 1000 nM; in series [3], less than 100 nM; in series [4] it was less than 100 nM. This compound also gave a bioavailability in series [5] of 2.37%.

Consider `C#Cc1c(F)ccc2cc(O)cc(-c3nc(OC)c4c(N5CC6CCC(C5)N6)nc(OCC5(CN6CCCC6)CC5)nc4c3F)c12` [Ref. 3, reference compound], for which the IC50 in series [2] is less than 100 nM. In series [5], this compound displayed a bioavailability of 0.23%.

Turning to `C#Cc1c(F)ccc2cc(O)cc(-c3nc(Cl)c4c(N5CC6CCC(C5)N6)nc(OCC5(CN6CCC(C(F)(F)F)CC6)CC5)nc4c3F)c12` [Example 36], the IC50 in series [1] was less than 0.1 µM; in series [2], less than 100 nM; in series [6] it was 100 to 1000 nM; in series [3], less than 100 nM; in series [4], less than 100 nM.

With `[2H]C([2H])([2H])Oc1nc(-c2cc(O)cc3ccc(F)c(C#C)c23)c(F)c2nc(OCC3(CN4CC5CC5C4)CC3)nc(N3CC4CCC(C3)N4)c12` (centres unmarked) [Example 4], the IC50 in series [1] is less than 0.1 µM; in series [2], less than 100 nM; in series [6], less than 100 nM; in series [3], less than 100 nM; in series [4], less than 100 nM. The compound also returned a bioavailability in series [5] (25 mg/kg) of 5.4%.

On to `C#Cc1c(F)ccc2cc(O)cc(-c3nc(OC)c4c(N5CC6CCC(C5)N6)nc(OCC5(CN6CC7C(C6)C7(F)F)CC5)nc4c3F)c12` (centres unmarked) [Example 49], for which the IC50 is less than 0.1 µM in series [1], less than 100 nM in series [2], less than 100 nM in series [3] and less than 100 nM in series [4]. The compound further gave a bioavailability in series [5] of 3.82%.

As to `C#Cc1c(F)ccc2cc(O)cc(-c3ncc4c(N5CC6CCC(C5)N6)nc(OCC5(CN6CCC(F)CC6)CC5)nc4c3F)c12` [Example 1, 4-(4-(3,8-diazabicyclo[3.2.1]octan-3-yl)-8-fluoro-2-((1-((4-fluoropiperidin-1-yl)methyl)cyclopropyl)methoxy)pyrido[4,3-d]pyrimidin-7-yl)-5-ethynyl-6-fluoronaphthalen-2-ol], the IC50 was less than 0.1 µM in series [1]; less than 100 nM in series [2]; less than 100 nM in series [6]; less than 100 nM in series [3]; less than 100 nM in series [4]. Also, the bioavailability in series [5] (25 mg/kg) amounted to 0.8%.

With `C#Cc1c(F)ccc2cc(O)cc(-c3nc(OC4CC4)c4c(N5CC6CCC(C5)N6)nc(OCC5(CN6CC7CC7C6)CC5)nc4c3F)c12` (centres unmarked) [Example 40], the IC50 was less than 0.1 µM in series [1]; less than 100 nM in series [2]; 100 to 1000 nM in series [6]; less than 100 nM in series [3]; less than 100 nM in series [4].

As for `C#Cc1c(F)ccc2cc(O)cc(-c3ncc4c(N5CC6CCC(C5)N6)nc(OCC5(CN6CC=C(C(F)(F)F)CC6)CC5)nc4c3F)c12` [Example 26], the IC50 in series [1] is less than 0.1 µM; in series [2] it was less than 100 nM; in series [6] it was 100 to 1000 nM; in series [3], less than 100 nM; in series [4], less than 100 nM.

On to `C#Cc1cccc2cc(O)cc(-c3ncc4c(N5CC6CCC(C5)N6)nc(OCC5(CN6CC[C@H](F)C6)CC5)nc4c3F)c12` [Example 8], for which the IC50 in series [1] was less than 0.1 µM; in series [2] it was less than 100 nM; in series [6], less than 100 nM; in series [3] it was less than 100 nM; in series [4] it was less than 100 nM.

As for `C#Cc1c(F)ccc2cc(O)cc(-c3nc(OC)c4c(N5CC6CCC(C5)N6)nc(OCC5(CN(C)C)CC5)nc4c3F)c12` [Ref. 4, reference compound], in series [2], the IC50 is less than 100 nM. In addition, the bioavailability in series [5] turned out to be 0.23%.

`C#Cc1c(F)ccc2cc(O)cc(-c3nc(OC)c4c(N5CC6CCC(C5)N6)nc(OCC5(CN6CC7C(C6)C7C(F)(F)F)CC5)nc4c3F)c12` (centres unmarked) [Example 41]: the IC50 in series [1] is less than 0.1 µM; in series [2], less than 100 nM; in series [6], 100 to 1000 nM; in series [3] it was less than 100 nM; in series [4], less than 100 nM.

`C#Cc1c(F)ccc2cc(O)cc(-c3ncc4c(N5CC6CCC(C5)N6)nc(OCC5(CN6CCC(OC(F)(F)F)CC6)CC5)nc4c3F)c12` [Example 20]: the IC50 in series [1] was less than 0.1 µM; in series [2], less than 100 nM; in series [6], 100 to 1000 nM; in series [3], less than 100 nM; in series [4], less than 100 nM.

With `C#Cc1c(F)ccc2cc(O)cc(-c3nc(OC)c4c(N5CC6CCC(C5)N6)nc(OCC5(CN6CCOCC6)CC5)nc4c3F)c12` [Example 33], the concentration for half-maximal inhibition (IC50) was less than 0.1 µM in series [1]; less than 100 nM in series [2]; 100 to 1000 nM in series [6]; less than 100 nM in series [3]; less than 100 nM in series [4].

Take `C#Cc1c(F)ccc2cc(O)cc(-c3nc(OC)c4c(N5CC6CCC(C5)N6)nc(OCC5(CN6CC(F)C(F)C6)CC5)nc4c3F)c12` (centres unmarked) [Example 42]: the IC50 was less than 0.1 µM in series [1]; less than 100 nM in series [2]; 100 to 1000 nM in series [6]; less than 100 nM in series [3]; less than 100 nM in series [4].

Consider `C#Cc1c(F)ccc2cc(O)cc(-c3ncc4c(N5CC6CCC(C5)N6C(=O)OC(C)OC(C)=O)nc(OCC5(CN6CCC(F)CC6)CC5)nc4c3F)c12` (centres unmarked) [Example 52], for which the IC50 in series [1] is less than 0.1 µM; in series [2] it was less than 100 nM; in series [6], 100 to 1000 nM; in series [3], less than 100 nM; in series [4], less than 100 nM.

Turning to `C#Cc1c(F)ccc2cc(O)cc(-c3nc(Cl)c4c(N5CC6CCC(C5)N6)nc(OCC5(CN6CCC(F)CC6)CC5)nc4c3F)c12` [Example 28], the half-inhibitory concentration (IC50) was less than 0.1 µM in series [1]; less than 100 nM in series [2]; 100 to 1000 nM in series [6]; less than 100 nM in series [3]; less than 100 nM in series [4].

With `C#Cc1c(F)ccc2cc(O)cc(-c3nc(OC)c4c(N5CC6CCC(C5)N6)nc(OCC5(CN6CCC6)CC5)nc4c3F)c12` [Ref. 2, reference compound], the IC50 in series [1] is less than 0.1 µM; in series [2], less than 100 nM; in series [3], 100 to 1000 nM; in series [4], 100 to 1000 nM. This compound showed a bioavailability in series [5] (25 mg/kg) of 0.15%.

On to `C#Cc1cccc2cc(O)cc(-c3ncc4c(N5CC6CCC(C5)N6)nc(OCC5(CN6CCC(F)CC6)CC5)nc4c3F)c12` [Example 7], for which the concentration for half-maximal inhibition (IC50) was less than 0.1 µM in series [1]; less than 100 nM in series [2]; less than 100 nM in series [6]; less than 100 nM in series [3]; less than 100 nM in series [4].

With `C#Cc1c(F)ccc2cc(O)cc(-c3ncc4c(N5CC6CCC(C5)N6)nc(OCC5(CN6CC7CC7(C#N)C6)CC5)nc4c3F)c12` (centres unmarked) [Example 21], the IC50 was less than 0.1 µM in series [1]; less than 100 nM in series [2]; 100 to 1000 nM in series [6]; 100 to 1000 nM in series [3]; less than 100 nM in series [4].

As to `[2H]C([2H])([2H])Oc1nc(-c2cc(O)cc3ccc(F)c(C#C)c23)c(F)c2nc(OCC3(CN4CCC(C(F)(F)F)CC4)CC3)nc(N3CC4CCC(C3)N4)c12` [Example 30], the IC50 in series [1] is less than 0.1 µM; in series [2] it was less than 100 nM; in series [6], less than 100 nM; in series [3] it was less than 100 nM; in series [4], less than 100 nM.

Values taken from patent publication US20260176290A1, “INHIBITORS OF KRAS(G12D)” (Ranok Therapeutics (Hangzhou) Co. Ltd., priority 2022, published 2026).
